ChEMBL document CHEMBL2375237, “Optimization of allosteric MEK inhibitors. Part 1: Venturing into underexplored SAR territories” (Bioorg Med Chem Lett, 2013)
Activity calls are given as the source filed them. No cut-off for these calls is given here.

System: not listed separately
Assay: Terminal half life in dog
Type: ADME, organism-based, Canis lupus familiaris
Details: in vivo, read-out: beta t1/2 (converted)

SMILES | half-life [h]
NC(=O)c1c(Nc2ccc(I)cc2F)cc(F)cc1Oc1cccc(NS(N)(=O)=O)c1 | 110

System: not listed separately
Assay: Terminal half life in mouse
Type: ADME, organism-based
Details: in vivo, read-out: beta t1/2 (converted)

SMILES | half-life [h]
NC(=O)c1c(Nc2ccc(I)cc2F)cc(F)cc1Oc1cccc(NS(N)(=O)=O)c1 | 34

System: MIA PaCa-2
Assay: Antiproliferative activity against human MIAPaCa2 cells
Type: functional, cell-based
Details: not given

SMILES | IC50 [nM]
NC(=O)c1c(Nc2ccc(I)cc2F)cc(F)cc1Oc1cccc(NS(N)(=O)=O)c1 | 23
Cn1cnc2c(F)c(Nc3ccc(Br)cc3Cl)c(C(=O)NOCCO)cc21 [SELUMETINIB] | 142

System: LoVo
Assay: Antiproliferative activity against human LoVo cells
Type: functional, cell-based
Details: not given

SMILES | IC50 [nM]
NC(=O)c1c(Nc2ccc(I)cc2F)cc(F)cc1Oc1cccc(NS(N)(=O)=O)c1 | 175
Cn1cnc2c(F)c(Nc3ccc(Br)cc3Cl)c(C(=O)NOCCO)cc21 [SELUMETINIB] | 2830

System: A549
Assay: Antiproliferative activity against human A549 cells
Type: functional, cell-based
Details: not given

SMILES | IC50 [nM]
NC(=O)c1c(Nc2ccc(I)cc2F)cc(F)cc1Oc1cccc(NS(N)(=O)=O)c1 | 132
Cn1cnc2c(F)c(Nc3ccc(Br)cc3Cl)c(C(=O)NOCCO)cc21 [SELUMETINIB] | 1750

System: HCT-116
Assay: Ratio of AZD6244 IC50 to compound IC50 for human HCT116 cells expressing KRAS G13D mutant
Type: functional
Details: not given

SMILES | Ratio IC50
NC(=O)c1c(Nc2ccc(I)cc2F)cc(F)cc1Oc1cccc(NS(N)(=O)=O)c1 | >=10

System: not listed separately
Assay: Drug metabolism in hepatocytes (unknown origin) assessed as demethylation of the sulfamide moiety
Type: ADME, cell-based, Hepatocyte
Details: not given

SMILES | Drug metabolism
CN(C)S(=O)(=O)Nc1cccc(Oc2cc(F)cc(Nc3ccc(I)cc3F)c2C(N)=O)c1 | Active

System: not listed separately
Assay: Drug metabolism in liver microsomes (unknown origin) assessed as demethylation of the sulfamide moiety
Type: ADME, Microsome
Details: not given

SMILES | Drug metabolism
CN(C)S(=O)(=O)Nc1cccc(Oc2cc(F)cc(Nc3ccc(I)cc3F)c2C(N)=O)c1 | Active

System: Caco-2
Assay: Efflux ratio of permeability in human Caco2 cells relative to control
Type: ADME, cell-based
Details: not given

SMILES | fold change (FC)
NC(=O)c1c(Nc2ccc(I)cc2F)cc(F)cc1OCC[C@@H](O)Cn1ccnc1 | 10

System: not listed separately
Assay: Ratio of AUC in mouse brain to AUC in mouse plasma at 5 mg/kg, iv up to 3 hrs
Type: ADME, organism-based
Parameters: dose 5 mg/kg, route intravenous
Details: read-out: Ratio AUC

SMILES | Kp at 3 h
NC(=O)c1c(Nc2ccc(I)cc2F)cc(F)cc1Oc1cccc(NS(N)(=O)=O)c1 | < 0.02
Cn1cnc2c(F)c(Nc3ccc(Br)cc3Cl)c(C(=O)NOCCO)cc21 [SELUMETINIB] | < 0.02
NC(=O)c1c(Nc2ccc(I)cc2F)cc(F)cc1OCC[C@@H](O)CO | 0.73
NC(=O)c1c(Nc2ccc(I)cc2F)cc(F)cc1OCC[C@@H](O)Cn1ccnc1 | 0.04

System: not listed separately
Assay: Oral bioavailability in rat
Type: ADME, organism-based
Details: in vivo

SMILES | bioavailability [%]
CN(C)S(=O)(=O)Nc1cccc(Oc2cc(F)cc(Nc3ccc(I)cc3F)c2C(N)=O)c1 | 55

System: not listed separately
Assay: Oral bioavailability in rat at 0.6 mg/kg
Type: ADME, organism-based
Details: in vivo

SMILES | bioavailability [%]
NC(=O)c1c(Nc2ccc(I)cc2F)cc(F)cc1OCC[C@@H](O)Cn1ccnc1 | 20

System: not listed separately
Assay: Oral bioavailability in rat at 1 mg/kg
Type: ADME, organism-based
Details: in vivo

SMILES | bioavailability [%]
NC(=O)c1c(Nc2ccc(I)cc2F)cc(F)cc1Oc1cccc(NS(N)(=O)=O)c1 | 62
O=C(NOC[C@H](O)CO)c1ccc(F)c(F)c1Nc1ccc(I)cc1F [MIRDAMETINIB] | 104
NC(=O)c1c(Nc2ccc(I)cc2F)cc(F)cc1OCC[C@@H](O)CO | 70

System: not listed separately
Assay: Oral bioavailability in rat at 5 mg/kg
Type: ADME, organism-based
Details: in vivo

SMILES | bioavailability [%]
Cn1cnc2c(F)c(Nc3ccc(Br)cc3Cl)c(C(=O)NOCCO)cc21 [SELUMETINIB] | 14

System: not listed separately
Assay: Terminal half life in rat at 1 mg/kg, iv
Type: ADME, organism-based
Parameters: dose 1 mg/kg, route intravenous
Details: in vivo, read-out: beta t1/2 (converted)

SMILES | half-life [h]
CN(C)S(=O)(=O)Nc1cccc(Oc2cc(F)cc(Nc3ccc(I)cc3F)c2C(N)=O)c1 | 2.2

System: not listed separately
Assay: Terminal half life in rat at 0.3 mg/kg, iv and 0.6 mg/kg, po
Type: ADME, organism-based
Details: in vivo, read-out: beta t1/2 (converted)

SMILES | half-life [h]
NC(=O)c1c(Nc2ccc(I)cc2F)cc(F)cc1OCC[C@@H](O)Cn1ccnc1 | 8.4

System: not listed separately
Assay: Terminal half life in rat at 1 mg/kg, iv and 1 mg/kg, po
Type: ADME, organism-based
Details: in vivo, read-out: beta t1/2 (converted)

SMILES | half-life [h]
NC(=O)c1c(Nc2ccc(I)cc2F)cc(F)cc1Oc1cccc(NS(N)(=O)=O)c1 | 32

System: not listed separately
Assay: Terminal half life in rat at 0.5 mg/kg, iv and 5 mg/kg, po
Type: ADME, organism-based
Details: in vivo, read-out: beta t1/2 (converted)

SMILES | half-life [h]
Cn1cnc2c(F)c(Nc3ccc(Br)cc3Cl)c(C(=O)NOCCO)cc21 [SELUMETINIB] | 3.8

System: not listed separately
Assay: Terminal half life in rat at 0.5 mg/kg, iv and 1 mg/kg, po
Type: ADME, organism-based
Details: in vivo, read-out: beta t1/2 (converted)

SMILES | half-life [h]
O=C(NOC[C@H](O)CO)c1ccc(F)c(F)c1Nc1ccc(I)cc1F [MIRDAMETINIB] | 5.4
NC(=O)c1c(Nc2ccc(I)cc2F)cc(F)cc1OCC[C@@H](O)CO | 2.4

System: not listed separately
Assay: Volume of distribution at steady state in rat at 1 mg/kg, iv and 1 mg/kg, po
Type: ADME, organism-based
Details: in vivo, read-out: Vdss

SMILES | Vd [L/kg]
NC(=O)c1c(Nc2ccc(I)cc2F)cc(F)cc1Oc1cccc(NS(N)(=O)=O)c1 | 2

System: not listed separately
Assay: Volume of distribution at steady state in rat at 0.5 mg/kg, iv and 5 mg/kg, po
Type: ADME, organism-based
Details: in vivo, read-out: Vdss

SMILES | Vd [L/kg]
Cn1cnc2c(F)c(Nc3ccc(Br)cc3Cl)c(C(=O)NOCCO)cc21 [SELUMETINIB] | 0.2

System: not listed separately
Assay: Volume of distribution at steady state in rat at 0.3 mg/kg, iv and 0.6 mg/kg, po
Type: ADME, organism-based
Details: in vivo, read-out: Vdss

SMILES | Vd [L/kg]
NC(=O)c1c(Nc2ccc(I)cc2F)cc(F)cc1OCC[C@@H](O)Cn1ccnc1 | 10.3

System: not listed separately
Assay: Volume of distribution at steady state in rat at 0.5 mg/kg, iv and 1 mg/kg, po
Type: ADME, organism-based
Details: in vivo, read-out: Vdss

SMILES | Vd [L/kg]
O=C(NOC[C@H](O)CO)c1ccc(F)c(F)c1Nc1ccc(I)cc1F [MIRDAMETINIB] | 1.7
NC(=O)c1c(Nc2ccc(I)cc2F)cc(F)cc1OCC[C@@H](O)CO | 4.4

System: not listed separately
Assay: Blood clearance in rat at 1 mg/kg, iv
Type: ADME, organism-based
Parameters: dose 1 mg/kg, route intravenous
Details: whole blood

SMILES | clearance [mL/min/kg]
CN(C)S(=O)(=O)Nc1cccc(Oc2cc(F)cc(Nc3ccc(I)cc3F)c2C(N)=O)c1 | 35

System: not listed separately
Assay: Blood clearance in rat at 1 mg/kg, iv and 1 mg/kg, po
Type: ADME, organism-based
Details: whole blood

SMILES | clearance [mL/min/kg]
NC(=O)c1c(Nc2ccc(I)cc2F)cc(F)cc1Oc1cccc(NS(N)(=O)=O)c1 | 0.5

System: not listed separately
Assay: Blood clearance in rat at 0.3 mg/kg, iv and 0.6 mg/kg, po
Type: ADME, organism-based
Details: whole blood

SMILES | clearance [mL/min/kg]
NC(=O)c1c(Nc2ccc(I)cc2F)cc(F)cc1OCC[C@@H](O)Cn1ccnc1 | 9.67

System: not listed separately
Assay: Blood clearance in rat at 0.5 mg/kg, iv and 1 mg/kg, po
Type: ADME, organism-based
Details: whole blood

SMILES | clearance [mL/min/kg]
O=C(NOC[C@H](O)CO)c1ccc(F)c(F)c1Nc1ccc(I)cc1F [MIRDAMETINIB] | 8.33
NC(=O)c1c(Nc2ccc(I)cc2F)cc(F)cc1OCC[C@@H](O)CO | 24.8

System: not listed separately
Assay: Blood clearance in rat at 0.5 mg/kg, iv and 5 mg/kg, po
Type: ADME, organism-based
Details: whole blood

SMILES | clearance [mL/min/kg]
Cn1cnc2c(F)c(Nc3ccc(Br)cc3Cl)c(C(=O)NOCCO)cc21 [SELUMETINIB] | 1

System: HCT-116
Assay: Antiproliferative activity against human HCT116 cells expressing KRAS G13D mutant
Type: functional, cell-based
Details: not given

SMILES | IC50 [nM]
NC(=O)c1c(Nc2ccc(I)cc2F)cc(F)cc1OC[C@@H]1CCCN1S(N)(=O)=O | 3040
NC(=O)c1c(Nc2ccc(I)cc2F)cc(F)cc1Oc1cccc(NS(N)(=O)=O)c1 | 180
Cn1cnc2c(F)c(Nc3ccc(Br)cc3Cl)c(C(=O)NOCCO)cc21 [SELUMETINIB] | 3100
CN(C)S(=O)(=O)Nc1cccc(Oc2cc(F)cc(Nc3ccc(I)cc3F)c2C(N)=O)c1 | 155
NC(=O)c1c(Nc2ccc(I)cc2F)cc(F)cc1OCC[C@@H](O)CO | 3400
NC(=O)c1c(Nc2ccc(I)cc2F)cc(F)cc1OCC[C@@H](O)Cn1ccnc1 | 1250

Target: Dual specificity mitogen-activated protein kinase kinase 1 (Homo sapiens, UniProt Q02750)
Sequence (Q02750 whole entry): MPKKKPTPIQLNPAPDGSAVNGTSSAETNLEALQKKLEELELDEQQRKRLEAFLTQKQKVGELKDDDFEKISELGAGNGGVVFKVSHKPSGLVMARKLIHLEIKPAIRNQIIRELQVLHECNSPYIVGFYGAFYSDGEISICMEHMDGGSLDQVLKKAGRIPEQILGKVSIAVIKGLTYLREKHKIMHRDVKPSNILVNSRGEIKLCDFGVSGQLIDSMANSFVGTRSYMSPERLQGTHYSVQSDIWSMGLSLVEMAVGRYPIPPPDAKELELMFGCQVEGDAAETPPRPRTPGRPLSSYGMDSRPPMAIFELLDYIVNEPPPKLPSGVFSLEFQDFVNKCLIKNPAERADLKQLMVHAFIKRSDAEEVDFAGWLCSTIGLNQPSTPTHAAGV
Assay: Inhibition of MEK1 (unknown origin) after 2 hrs by fluorescence assay
Details: not given

SMILES | IC50 [nM]
NC(=O)c1c(Nc2ccc(I)cc2F)cc(F)cc1OC[C@@H]1CCCN1S(N)(=O)=O | 73
NC(=O)c1c(Nc2ccc(I)cc2F)cc(F)cc1Oc1cccc(NS(N)(=O)=O)c1 | 14
CN(C)S(=O)(=O)Nc1cccc(Oc2cc(F)cc(Nc3ccc(I)cc3F)c2C(N)=O)c1 | 21
NC(=O)c1c(Nc2ccc(I)cc2F)cc(F)cc1OCC[C@@H](O)Cn1ccnc1 | 16

System: A549
Assay: not given
Details: Homo sapiens

SMILES | TGI
NC(=O)c1c(Nc2ccc(I)cc2F)cc(F)cc1Oc1cccc(NS(N)(=O)=O)c1 | Active

System: A549
Assay: not given
Details: Homo sapiens
Remark: another data set of the same source

SMILES | TGI
O=C(NOC[C@H](O)CO)c1ccc(F)c(F)c1Nc1ccc(I)cc1F [MIRDAMETINIB] | Active

System: A549
Assay: not given
Details: Homo sapiens
Remark: another data set of the same source

SMILES | TGI
NC(=O)c1c(Nc2ccc(I)cc2F)cc(F)cc1Oc1cccc(NS(N)(=O)=O)c1 | Active

System: A-375
Assay: cells
Details: Homo sapiens, A-375, 72 h
Description: Antiproliferative activity against human A375 cells expressing BRAF V600E mutant after 72 hrs by Cell titer-glo assay

SMILES | IC50 [nM]
NC(=O)c1c(Nc2ccc(I)cc2F)cc(F)cc1OC[C@@H]1CCCN1S(N)(=O)=O | 172
NC(=O)c1c(Nc2ccc(I)cc2F)cc(F)cc1Oc1cccc(NS(N)(=O)=O)c1 | 4
Cn1cnc2c(F)c(Nc3ccc(Br)cc3Cl)c(C(=O)NOCCO)cc21 [SELUMETINIB] | 31
CN(C)S(=O)(=O)Nc1cccc(Oc2cc(F)cc(Nc3ccc(I)cc3F)c2C(N)=O)c1 | 18
NC(=O)c1c(Nc2ccc(I)cc2F)cc(F)cc1OCC[C@@H](O)CO | 148
NC(=O)c1c(Nc2ccc(I)cc2F)cc(F)cc1OCC[C@@H](O)Cn1ccnc1 | 98
